From ChEMBL document CHEMBL5344460, “Advancements in Predictive Medicine: NLRP3 Inflammasome Inhibitors and AI-Driven Predictive Health Analytics” (ACS Med Chem Lett, 2024)

What follows are compounds tested against NACHT, LRR and PYD domains-containing protein 3 (Homo sapiens, UniProt Q96P20) (assay: Binding affinity to human recombinant NLRP3 inflammasome).
Chain of NACHT, LRR and PYD domains-containing protein 3 (Q96P20 whole entry, the tested form may be a part): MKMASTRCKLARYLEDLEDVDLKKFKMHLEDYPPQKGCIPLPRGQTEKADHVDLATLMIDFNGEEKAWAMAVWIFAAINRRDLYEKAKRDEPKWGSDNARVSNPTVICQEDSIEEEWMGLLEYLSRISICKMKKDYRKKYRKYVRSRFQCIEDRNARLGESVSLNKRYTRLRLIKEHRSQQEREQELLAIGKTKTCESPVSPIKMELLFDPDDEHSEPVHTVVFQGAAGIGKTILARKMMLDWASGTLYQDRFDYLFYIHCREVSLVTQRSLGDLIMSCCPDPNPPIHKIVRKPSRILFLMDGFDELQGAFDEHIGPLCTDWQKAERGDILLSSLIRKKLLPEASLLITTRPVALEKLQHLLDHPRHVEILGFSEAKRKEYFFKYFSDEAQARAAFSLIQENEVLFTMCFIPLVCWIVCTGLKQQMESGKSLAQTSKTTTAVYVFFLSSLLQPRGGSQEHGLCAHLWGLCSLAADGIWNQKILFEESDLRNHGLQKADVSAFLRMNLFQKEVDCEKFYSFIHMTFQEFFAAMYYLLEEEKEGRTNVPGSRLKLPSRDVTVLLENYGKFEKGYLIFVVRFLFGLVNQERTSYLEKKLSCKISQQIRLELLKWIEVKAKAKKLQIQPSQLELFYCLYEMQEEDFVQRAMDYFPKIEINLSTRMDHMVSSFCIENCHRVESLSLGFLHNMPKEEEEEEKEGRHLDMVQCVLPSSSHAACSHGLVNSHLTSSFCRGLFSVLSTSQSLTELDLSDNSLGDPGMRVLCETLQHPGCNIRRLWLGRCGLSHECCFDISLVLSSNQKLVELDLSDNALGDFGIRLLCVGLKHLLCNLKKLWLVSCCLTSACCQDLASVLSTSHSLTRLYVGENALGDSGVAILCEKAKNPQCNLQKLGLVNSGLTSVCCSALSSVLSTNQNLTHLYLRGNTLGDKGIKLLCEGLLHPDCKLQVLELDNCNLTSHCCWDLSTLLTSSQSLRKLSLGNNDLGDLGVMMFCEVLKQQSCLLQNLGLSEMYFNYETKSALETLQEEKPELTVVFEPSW

Row | Structure (SMILES) | Kd
1 | COc1ccc(Cl)cc1Cn1cc(-c2ccc(C(=O)N3CCC3)cc2)nn1 | 3000 nM
2 | COC(=O)c1ccc(-c2cn(Cc3cc(Cl)ccc3OC)nn2)nc1 | 860 nM
3 | COc1ccc(Cl)cc1Cn1cc(C(=O)N2CC(F)(F)C2)nn1 | 980 nM
